Experimental findings from BindingDB's records for doi:10.7270/Q290226P (Vanderbilt Screening Center For Gpcrs, Ion Channels and …, 2010) are described below.

SMILES strings stand for the structures.

In this experiment the target is T1, Muscarinic acetylcholine receptor M5 (Homo sapiens, UniProt P08912).
T1 sequence (P08912 whole entry): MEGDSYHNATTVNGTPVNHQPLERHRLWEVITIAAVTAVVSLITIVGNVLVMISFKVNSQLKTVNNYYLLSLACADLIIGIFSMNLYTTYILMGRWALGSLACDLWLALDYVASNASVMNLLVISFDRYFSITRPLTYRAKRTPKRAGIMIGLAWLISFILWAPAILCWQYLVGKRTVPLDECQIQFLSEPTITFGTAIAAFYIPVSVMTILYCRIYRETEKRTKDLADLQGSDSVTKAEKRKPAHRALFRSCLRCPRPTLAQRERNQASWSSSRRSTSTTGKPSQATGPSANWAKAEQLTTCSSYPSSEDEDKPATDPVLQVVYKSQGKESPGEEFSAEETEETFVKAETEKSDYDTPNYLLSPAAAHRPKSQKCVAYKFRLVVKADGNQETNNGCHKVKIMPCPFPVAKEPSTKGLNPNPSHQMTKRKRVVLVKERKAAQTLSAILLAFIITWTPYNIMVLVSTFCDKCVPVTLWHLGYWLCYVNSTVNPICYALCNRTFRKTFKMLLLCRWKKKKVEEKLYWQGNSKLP
Briefly: PubChem AID 2186.
For orientation: EC50 means the concentration giving half of the maximal effect. Lower therefore signals higher potency in that assay. For `COc1ccc(CN2C(=O)C(=O)c3cc(OC(F)(F)F)ccc32)cc1` [VU0238429], the EC50 turned out to be 0.512 nM.
Then `O=C1C(=O)N(Cc2ccc(-c3ccccc3)cc2)c2ccc(OC(F)(F)F)cc21`, with more than 442 nM.
The compound `O=C1C(=O)N(Cc2ccc(-c3ccsc3)cc2)c2ccc(OC(F)(F)F)cc21` displayed an EC50 of more than 442 nM.
